For 23 compounds, response vs control in vivo, inhibition and IC50 results are on record in patent US4623662A, “Antiatherosclerotic ureas and thioureas” (American Cyanamid Company, priority 1985, dated 1986).

In one assay the test system is cholesterol absorption. In words: Inhibition of cholesterol absorption in rats fed 1% cholesterol:0.5% cholic acid diet. Type of assay: in vivo, male Sprague-Dawley rats. Conditions: po, 336 h, rat, dose .03% of the diet, 2 weeks. Put shortly: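 Compound was mixed into the diet (0.001-0.03%) of male Sprague-Dawley rats, 150-170 g, on a 1% cholesterol/0.5% cholic acid regimen for 2 weeks. At sacrifice, serum cholesterol (enzymatic) and liver neutral-sterol cholesterol were measured; values given as percent of compound-free control rats.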

Assay [1] addresses T1, fatty acyl CoA: cholesterol acyl transferase (ACAT) (Rattus norvegicus, UniProt O70536).
T1 construct: The supernatant, containing the microsomal fraction, served as the source of the cholesterol-esterifying enzyme; from tissue; host or cells: rat adrenals, supernatant of 1,000 x g centrifugation containing the microsomal fraction
T1 sequence (O70536 1-545): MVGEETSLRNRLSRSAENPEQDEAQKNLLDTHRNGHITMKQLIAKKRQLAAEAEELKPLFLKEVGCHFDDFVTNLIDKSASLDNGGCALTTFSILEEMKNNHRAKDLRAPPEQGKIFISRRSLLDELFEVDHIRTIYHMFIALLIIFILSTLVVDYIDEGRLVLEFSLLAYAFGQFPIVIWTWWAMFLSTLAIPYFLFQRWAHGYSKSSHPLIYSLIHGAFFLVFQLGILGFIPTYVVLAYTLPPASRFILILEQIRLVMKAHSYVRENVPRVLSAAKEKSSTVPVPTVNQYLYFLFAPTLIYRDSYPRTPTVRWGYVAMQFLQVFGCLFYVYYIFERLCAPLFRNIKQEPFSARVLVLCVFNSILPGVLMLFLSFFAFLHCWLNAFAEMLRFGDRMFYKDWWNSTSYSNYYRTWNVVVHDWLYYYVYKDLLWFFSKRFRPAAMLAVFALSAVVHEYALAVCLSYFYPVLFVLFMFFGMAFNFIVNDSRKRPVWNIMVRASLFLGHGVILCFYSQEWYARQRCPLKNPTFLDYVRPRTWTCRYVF
Briefly: Inhibition of fatty acyl CoA:cholesterol acyl transferase (ACAT), rat adrenal enzyme. Type of assay: biochemical. Conditions: for IC50: several concentrations. The method in brief: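 Read-out was scintillation counting of [14C]cholesteryl ester, isolated by TLC, after 10 min at 37° C with [14C]oleoyl CoA. Beforehand, compound (final 5.2 μg/ml in single-concentration tests) was preincubated 10 min at 37° C with BSA and rat adrenal microsomal supernatant in pH 7.4 phosphate. Results given as percent inhibition versus control or IC50 over several concentrations.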

Where [2] appears, read: read-out: LS (liver sterol), percentage of control values.
The mark [3] stands for this setting: read-out: SS (serum sterol), percentage of control values.
Where [4] appears, read: rat adrenal ACAT, final concentration 5.2 μg/ml, read-out: % Inhibition.

The structures appear in SMILES notation. Like-named read-outs stand apart in the source and are kept apart here.

For the compound `CCCCCOc1ccc(CN(Cc2ccc(CCCCC)cc2)C(=O)Nc2c(Cl)cc(Cl)cc2Cl)cc1` [1-(4-n-Pentylbenzyl)-1-(4-n-pentyloxybenzyl)-3-(2,4,6-trichlorophenyl)urea], the results for the response vs control in vivo at 0.03 % in the assay with cholesterol absorption (setting [2]) and in the assay with cholesterol absorption (setting [3]) were 76% and 100%, respectively. Besides, the inhibition at 5.2 µg/mL in assay [1] (setting [4]) was determined as 95.5%.
`CCCCCOc1ccc(CN(Cc2ccc(CCCCC)cc2)C(=O)Nc2ccc(Cl)cc2Cl)cc1` [1-(4-n-Pentylbenzyl)-1-(4-n-pentyloxybenzyl)-3-(2,4-dichlorophenyl)urea]: the response vs control in vivo at 0.03 % in the assay on cholesterol absorption (setting [2]) was 92%; in the assay on cholesterol absorption (setting [3]) it was 91%. The inhibition at 5.2 µg/mL in assay [1] (setting [4]) was 85%.
Regarding `CCCCCOc1ccc(CN(Cc2ccc(CCCCC)cc2)C(=O)Nc2ccc(F)cc2F)cc1` [1-(4-n-Pentylbenzyl)-1-(4-n-pentyloxybenzyl)-3-(2,4-difluorophenyl)urea], the values for the response vs control in vivo at 0.03 % with cholesterol absorption (setting [2]) and in the assay on cholesterol absorption (setting [3]) were 67% and 55%, respectively. Further, the inhibition at 5.2 µg/mL in assay [1] was 90%.
`CCCCc1ccc(CN(CCCCC(C)(C)C)C(=O)Nc2c(Cl)cc(Cl)cc2Cl)cc1` [1-(5,5-Dimethylhexyl)-1-[4-(n-butyl)benzyl]-3-(2,4,6-trichlorophenyl)urea]: the response vs control in vivo at 0.03 % with cholesterol absorption (setting [2]) is 32%; in the assay on cholesterol absorption (setting [3]), 45%. Also, in assay [1], the inhibition at 5.2 µg/mL was 90%.
Regarding `CCCCc1ccc(CN(CCCCC(C)(C)C)C(=O)Nc2ccc(F)cc2F)cc1` [1-(5,5-Dimethylhexyl)-1-[4-(n-butyl)benzyl]-3-(2,4-difluorophenyl)urea], the response vs control in vivo at 0.03 % with cholesterol absorption (setting [2]) amounted to 58%; in the assay on cholesterol absorption (setting [3]) it was 59%. The same compound came in with an inhibition at 5.2 µg/mL in assay [1] of 90%.
For the compound `CCCCc1ccc(CN(CCCCC(C)(C)C)C(=O)Nc2ccc(Cl)cc2C)cc1` [1-(5,5-Dimethylhexyl)-1-[4-(n-butyl)benzyl]-3-(4-chloro-2-methylphenyl)urea], the response vs control in vivo at 0.03 % in the assay on cholesterol absorption (setting [2]) is 34%; in the assay with cholesterol absorption (setting [3]) it was 42%. The compound further yielded an inhibition at 5.2 µg/mL in assay [1] of 90%.
With `CC(C)CCN(Cc1ccc(C(C)C)cc1)C(=O)Nc1c(F)cc(F)cc1F` [1-(Isopentyl)-1-[4-(isopropyl)benzyl]-3-(2,4,6-trifluorophenyl)urea], the response vs control in vivo at 0.03 % with cholesterol absorption (setting [2]) was 35%; in the assay on cholesterol absorption (setting [3]) it was 31%. Also, the midpoint of inhibition in assay [1] (rat adrenal ACAT), the IC50, lay at 530 nM.
In the same order, the values of `CC(C)CCN(Cc1ccc(C(C)C)cc1)C(=O)Nc1ccc(F)cc1F` [1-(Isopentyl)-1-[4-(isopropyl)benzyl]-3-(2,4-difluorophenyl)urea] are 37%, 49% and 3370 nM.
As for `Cc1cc(Cl)cc(C)c1NC(=O)N(CCC(C)C)Cc1ccc(C(C)C)cc1` [1-(Isopentyl)-1-[4-(isopropyl)benzyl]-3-(4-chloro-2,6-dimethylphenyl)urea], the response vs control in vivo at 0.03 % with cholesterol absorption (setting [2]) and with cholesterol absorption (setting [3]) was 23% in each case. In assay [1] (rat adrenal ACAT), this compound displayed an IC50 of 540 nM.
In the case of `CCCCCCCOc1ccc(CN(CCCC)C(=O)Nc2c(C)cc(C)cc2C)cc1` [1-(n-Butyl)-1-(4-heptyloxybenzyl)-3-(2,4,6-trimethylphenyl)urea], the response vs control in vivo at 0.03 % in the assay with cholesterol absorption (setting [2]) worked out at 31%; in the assay with cholesterol absorption (setting [3]), 66%. In assay [1], this compound gave an inhibition at 5.2 µg/mL of 97.3%.
Take `CCCCN(Cc1ccccc1)C(=O)Nc1ccc(Cl)cc1C` [1-(n-Butyl)-1-benzyl-3-(4-chloro-2-methylphenyl)urea]: the response vs control in vivo at 0.03 % was determined as 62% in the assay with cholesterol absorption (setting [2]) and 72% in the assay with cholesterol absorption (setting [3]). Moreover, the inhibition at 5.2 µg/mL in assay [1] (setting [4]) is 89%.
For `CCCCCCCN(CCc1ccccc1)C(=O)Nc1ccc(Cl)cc1Cl` [1-(n-Heptyl)-1-(2-phenylethyl)-3-(2,4-dichlorophenyl)urea], in that order: 88%, 81% and 91.8%.
For the compound `CCCCCCCN(CCc1ccccc1)C(=O)Nc1ccc(F)cc1F` [1-(n-Heptyl)-1-(2-phenylethyl)-3-(2,4-difluorophenyl)urea], the response vs control in vivo at 0.03 % came out at 57% in the assay on cholesterol absorption (setting [2]) and 59% in the assay on cholesterol absorption (setting [3]). The inhibition at 5.2 µg/mL in assay [1] (setting [4]) was determined as 94.1%.
Turning to `CCCCCCCN(CCc1ccccc1)C(=O)Nc1ccc(C)cc1C` [1-(n-Heptyl)-1-(2-phenylethyl)-3-(2,4-dimethylphenyl)urea], the figures for the response vs control in vivo at 0.03 % in the assay on cholesterol absorption (setting [2]) and with cholesterol absorption (setting [3]) were 36% and 57%, respectively. Further, the inhibition at 5.2 µg/mL in assay [1] (setting [4]) is 95.7%.
For the compound `CCCCCCCN(CCc1ccccc1)C(=O)Nc1ccc(Cl)cc1C` [1-(n-Heptyl)-1-(2-phenylethyl)-3-(2-methyl-4-chlorophenyl)urea], the response vs control in vivo at 0.03 % in the assay with cholesterol absorption (setting [2]) is 49%; with cholesterol absorption (setting [3]), 66%. For the same compound, the inhibition at 5.2 µg/mL in assay [1] (setting [4]) amounted to 93.8%.
For the compound `CCCCCCCN(CCc1ccccc1)C(=O)Nc1ccc(Cl)cc1C(F)(F)F` [1-(n-Heptyl)-1-(2-phenylethyl)-3-(2-trifluoromethyl-4-chlorophenyl)urea], the response vs control in vivo at 0.03 % with cholesterol absorption (setting [2]) was found to be 80%; in the assay with cholesterol absorption (setting [3]), 79%. The same compound came in with an inhibition at 5.2 µg/mL in assay [1] of 88.3%.
Take `CCCCCCCN(Cc1ccc(OCCCC)cc1)C(=O)Nc1cc(C)c(C)cc1C` [1-(n-Heptyl)-1-(4-butyloxybenzyl)-3-(2,4,5-trimethylphenyl)urea]: the response vs control in vivo at 0.03 % was 17% in the assay on cholesterol absorption (setting [2]) and 32% with cholesterol absorption (setting [3]). The inhibition at 5.2 µg/mL in assay [1] (setting [4]) turned out to be 95.6%.
In the same order, the values of `CCCCCCCN(Cc1ccc(OCCCC)cc1)C(=O)Nc1ccc(C)cc1C` [1-(n-Heptyl)-1-(4-butyloxybenzyl)-3-(2,4-dimethylphenyl)urea] are 22%, 26% and 94.6%.
On to `CCCCCCCN(Cc1ccc(OCCCC)cc1)C(=O)Nc1c(Cl)cc(Cl)cc1Cl` [1-(n-Heptyl)-1-(4-n-butoxybenzyl)-3-(2,4,6-trichlorophenyl)urea], for which the response vs control in vivo at 0.03 % with cholesterol absorption (setting [2]) was determined as 11%; with cholesterol absorption (setting [3]), 35%. Also, the inhibition at 5.2 µg/mL in assay [1] turned out to be 90%.
Take `CCCCCCCN(Cc1ccc(OCCCC)cc1)C(=O)Nc1ccc(F)cc1F` [1-(n-Heptyl)-1-(4-n-butoxybenzyl)-3-(2,4-difluorophenyl)urea]: the response vs control in vivo at 0.03 % in the assay on cholesterol absorption (setting [2]) was 25%; in the assay with cholesterol absorption (setting [3]) it was 63%. The inhibition at 5.2 µg/mL in assay [1] (setting [4]) worked out at 82.7%.
For `CCCCCCCN(Cc1ccc(OCCCC)cc1)C(=O)Nc1ccc(Cl)cc1C` [1-(n-Heptyl)-1-(4-n-butoxybenzyl)-3-(2-methyl-4-chlorophenyl)urea], in that order: 15%, 53% and 91.7%.
Turning to `CCCCCCCN(Cc1ccc(OCCCC)cc1)C(=O)Nc1cccc(C(F)(F)F)c1` [1-(n-Heptyl)-1-(4-n-butoxybenzyl)-3-(3-trifluoromethylphenyl)urea], the results for the response vs control in vivo at 0.03 % in the assay on cholesterol absorption (setting [2]) and with cholesterol absorption (setting [3]) were 86% and 80%, respectively. The inhibition at 5.2 µg/mL in assay [1] (setting [4]) worked out at 82.4%.
For the compound `CCCCCCCN(Cc1ccc(CCCC)cc1)C(=O)Nc1cc(C)c(C)cc1C` [1-(n-Heptyl)-1-(4-n-butylbenzyl)-3-(2,4,5-trimethylphenyl)urea], the response vs control in vivo at 0.03 % was determined as 10% in the assay with cholesterol absorption (setting [2]) and 33% in the assay with cholesterol absorption (setting [3]). The inhibition at 5.2 µg/mL in assay [1] (setting [4]) came out at 95.3%.
